Measurements reported in patent publication US20150197492A1, “NOVEL INDENO[1,2-c]QUINOLIN-11-ONE DERIVATIVES, PREPARATION METHOD AND APPLICATION THEREOF” (National Defense Medical Center, priority 2014, published 2015).

Experiments:
Test in all cases: cells
Type in all cases: cell-based
[1] = system: HL-60 (TB); conditions: HL-60 (TB) (Leukemia), 10 μM, 48 hours
[2] = system: K-562; conditions: K-562 (Leukemia), 10 μM, 48 hours
[3] = system: MOLT-4; conditions: MOLT-4 (Leukemia), 10 μM, 48 hours
[4] = system: RPMI-8226; conditions: RPMI-8226 (Leukemia), 10 μM, 48 hours
[5] = system: SR; conditions: SR (Leukemia), 10 μM, 48 hours
[6] = system: A549/ATCC; conditions: A549/ATCC (Non-Small Cell Lung Cancer), 10 μM, 48 hours
[7] = system: NCI-H23; conditions: NCI-H23 (Non-Small Cell Lung Cancer), 10 μM, 48 hours
[8] = system: NCI-H322M; conditions: NCI-H322M (Non-Small Cell Lung Cancer), 10 μM, 48 hours
[9] = system: NCI-H460; conditions: NCI-H460 (Non-Small Cell Lung Cancer), 10 μM, 48 hours
[10] = system: COLO 205; conditions: COLO 205 (Colon Cancer), 10 μM, 48 hours
[11] = system: HCC-2998; conditions: HCC-2998 (Colon Cancer), 10 μM, 48 hours
[12] = system: HCT-116; conditions: HCT-116 (Colon Cancer), 10 μM, 48 hours
[13] = system: HT29; conditions: HT29 (Colon Cancer), 10 μM, 48 hours
[14] = system: SW-620; conditions: SW-620 (Colon Cancer), 10 μM, 48 hours
[15] = system: SF-268; conditions: SF-268 (CNS Cancer), 10 μM, 48 hours
[16] = system: SNB-75; conditions: SNB-75 (CNS Cancer), 10 μM, 48 hours
[17] = system: U251; conditions: U251 (CNS Cancer), 10 μM, 48 hours
[18] = system: LOX IMVI; conditions: LOX IMVI (Melanoma), 10 μM, 48 hours
[19] = system: MDA-MB-435; conditions: MDA-MB-435 (Melanoma), 10 μM, 48 hours
[20] = system: SK-MEL-28; conditions: SK-MEL-28 (Melanoma), 10 μM, 48 hours
[21] = system: UACC-62; conditions: UACC-62 (Melanoma), 10 μM, 48 hours
[22] = system: IGROV1; conditions: IGROV1 (Ovarian Cancer), 10 μM, 48 hours
[23] = system: OVCAR-3; conditions: OVCAR-3 (Ovarian Cancer), 10 μM, 48 hours
[24] = system: OVCAR-4; conditions: OVCAR-4 (Ovarian Cancer), 10 μM, 48 hours
[25] = system: SK-OV-3; conditions: SK-OV-3 (Ovarian Cancer), 10 μM, 48 hours
[26] = system: A498; conditions: A498 (Renal Cancer), 10 μM, 48 hours
[27] = system: TK-10; conditions: TK-10 (Renal Cancer), 10 μM, 48 hours
[28] = system: PC-3; conditions: PC-3 (Prostate Cancer), 10 μM, 48 hours
[29] = system: MDA-MB-231/ATCC; conditions: MDA-MB-231/ATCC (Breast Cancer), 10 μM, 48 hours
[30] = system: HS 578T; conditions: HS 578T (Breast Cancer), 10 μM, 48 hours
[31] = system: BT-549; conditions: BT-549 (Breast Cancer), 10 μM, 48 hours
[32] = system: MDA-MB-468; conditions: MDA-MB-468 (Breast Cancer), 10 μM, 48 hours

Row | SMILES | growth percentage [1] [%] | growth percentage [2] [%] | growth percentage [3] [%] | growth percentage [4] [%] | growth percentage [5] [%] | growth percentage [6] [%] | growth percentage [7] [%] | growth percentage [8] [%] | growth percentage [9] [%] | growth percentage [10] [%] | growth percentage [11] [%] | growth percentage [12] [%] | growth percentage [13] [%] | growth percentage [14] [%] | growth percentage [15] [%] | growth percentage [16] [%] | growth percentage [17] [%] | growth percentage [18] [%] | growth percentage [19] [%] | growth percentage [20] [%] | other results
1 | CN1CCN(c2nc3ccccc3c3c2-c2ccc(Cl)cc2C3=O)CC1 [SJ-12, 9-Chloro-6-(4-methylpiperazin-1-yl)-11H-indeno[1,2-c]quinolin-11-one] | 101.15 | 92.13 | 92.90 | 85.92 | 75.13 | 96.43 | 86.27 | 87.41 | 91.83 | 93.65 | 103.21 | 92.78 | 93.76 | 92.76 | 92.35 | 70.00 | 85.86 | 87.17 | 98.43 | 110.81 | growth percentage [21]: 96.67%; growth percentage [22]: 75.03%; growth percentage [23]: 93.41%; growth percentage [24]: 94.70%; growth percentage [25]: 87.98%; growth percentage [26]: 72.81%; growth percentage [27]: 99.56%; growth percentage [28]: 82.93%; growth percentage [29]: 62.53%; growth percentage [30]: 70.47%; growth percentage [31]: 82.89%; growth percentage [32]: 95.71%
2 | O=C1c2cc(Cl)ccc2-c2c(N3CCN(C(=O)N4CCCCC4)CC3)nc3ccccc3c21 [SJ-23] | 109.78 | 95.70 | 104.77 | 104.31 | 105.15 | 99.12 | 95.41 | 94.59 | 98.85 | 98.52 | 106.23 | 101.67 | 108.65 | 92.51 | 107.51 | 80.84 | 98.15 | 103.19 | 102.57 | 107.03 | growth percentage [21]: 93.92%; growth percentage [22]: 81.63%; growth percentage [23]: 103.33%; growth percentage [24]: 98.31%; growth percentage [25]: 95.59%; growth percentage [26]: 104.44%; growth percentage [27]: 131.97%; growth percentage [28]: 93.07%; growth percentage [29]: 93.54%; growth percentage [30]: 102.06%; growth percentage [31]: 105.34%; growth percentage [32]: 106.42%
